The source of these data is US12655173B2, “Hybrid amide derivatives of amphotericin B” (priority 2020, dated 2026).

The nature of data set [1]: In vivo mouse pharmacokinetics (IV, CD-1 mice). The procedure: Mouse PK (FIG. 2): The experiment was performed using the compounds synthesized in lab and purified by preparative HPLC (>91%). All the compounds were dissolved in D5W (5% dextrose in water) at for IV injection. Female CD-1 mice were (3 per group; body weight approx. 30 g each) injected with the compounds (as per planned dosage) and the blood samples were collected at different time points and the compound content was analysed using the following procedure. • Instrument: Triple Quad 6500+ • Matrix […] CD-1 mouse plasma (EDTA-K2) • Analyte(s): Compound 1 • Internal standard(s): 100 ng/mL Labetalol & 100 ng/mL Tolbutamide in ACN • MS conditions ESI: positive • SRM detection • Compound 1: [M+H]+m/z 979.8>798.4 • Labelatol (IS): [M+H]+m/z 329.2>162.1 • UPLC conditions • Mobile Phase A: 0.1% FA in Water • Mobile Phase B: 0.1% FA in ACN
An aliquot of 90 μL supernatant was transferred to sample plate and mixed with 60 μL water, then the plate was shaken at 800 rpm for 10 min, 15.0 μL supernatant was injected for LC-MS/MS analysis. • Calibration curve: • 1.00-3000 ng/ml, for Compound 1 in female CD-1 mouse plasma (EDTA-K2)

For another data set, the system named is Candida albicans. The data set can be described thus: MIC against yeasts. Type of data set: cell-based. The following applies: 15 isolates, Table 3A.
The test system of a further data set is Trichophyton rubrum. Kind of data set: MIC against yeasts (Table 3A). The following applies: 3 isolates. It is filed as cell-based.
Data set [2] deals with Trichophyton mentagropytes. Kind of data set: MIC against yeasts (Table 3A). It is filed as cell-based. The settings on record: 3 isolates.
The next data set concerns Malassezia furfur. The data set can be described thus: MIC against yeasts (Table 3A). The settings on record: 3 isolates. It is filed as cell-based.
For a further data set, the system named is Scedosporium apiospermum. The data set can be described thus: MIC against yeasts (Table 3A). It is filed as cell-based. The following applies: 2 isolates.
Another data set relates to Scedosporium prolificans. The data set can be described thus: MIC against yeasts (Table 3A). Type of data set: cell-based. The settings on record: Lomentospora prolificans, 2 isolates.
Another data set relates to Epidermophyton floccosum. Kind of data set: MIC against yeasts (Table 3A). Type of data set: cell-based. The following applies: 2 isolates.
The subject of another data set is KIM1, LCN2, TIMP1, SPP1. The following applies: mouse, in vivo.

Values after ≈ are worked out from the molar mass of the structure shown.

Consider `CC1C=CC=CC=CC=CC=CC=CC=CC(OC2OC(C)C(O)C(N)C2O)CC2OC(O)(CC(O)CC(O)C(O)CCC(O)CC(O)CC(=O)OC(C)C(C)C1O)CC(O)C2C(=O)NC(CO)CO` (centres unmarked) [Compound 1], for which, in data set [1] (1 mg/kg), the “In vivo PK AUC0-inf (ng*hr/mL)” value is 18785] ng*hr/mL, the “In vivo PK Cl” value is 0.891 mL/min/kg and the “In vivo PK T1/2,” value is given as 8.37 h. In data set [1] (5 mg/kg), the “In vivo PK AUC0-inf” value is 79575 ng·h/mL, the “In vivo PK Cl” value is given as 1.05 mL/min/kg and the “In vivo PK T1/2,” value is 9.6 h.
Usually MIC stands for the lowest concentration found to suppress growth. Lower therefore signals a more susceptible organism. On to `C[C@@H]1[C@H](O)[C@@H](C)/C=C/C=C/C=C/C=C/C=C/C=C/C=C/[C@H](OC2O[C@H](C)[C@@H](O)[C@H](N)[C@@H]2O)C[C@@H]2O[C@](O)(C[C@@H](O)C[C@@H](O)[C@H](O)CC[C@@H](O)C[C@@H](O)CC(=O)O[C@H]1C)C[C@H](O)[C@H]2C(=O)O` (some centres unmarked) [AmB, Amphotericin B], for which the minimal inhibitory concentration (MIC) with Candida albicans is 0.61 µM (≈ 0.564 µg/mL); in the data set with Trichophyton rubrum, 1.1 µM (≈ 1.02 µg/mL); in data set [2] it was 4 µM (≈ 3.7 µg/mL); in the data set with Malassezia furfur, greater than 16 µM; in the data set with Scedosporium apiospermum, greater than 16 µM; in the data set on Scedosporium prolificans it was greater than 16 µM. For the same compound, in the data set with Epidermophyton floccosum, the minimum inhibitory concentration (MIC) came to 0.38 µM (≈ 0.351 µg/mL). The “Renal toxicity biomarkers KIM1, LCN2, TIMP1, SPP1” value in the data set with KIM1, LCN2, TIMP1, SPP1 is reported as “elevated”.
